Assay: logP(HCOOH) reported with HPLC/MS
[1] = method [c]: LC-MS, pH 7.8 with 0.001 molar ammonium hydrogen carbonate solution in water, linear gradient 10% to 95% acetonitrile
[2] = reversed phase HPLC columns, pH 2.3, log p, method [a]: HPLC on reversed phase columns, pH 2.3 with 0.1% phosphoric acid and acetonitrile as eluent
[3] = reversed phase HPLC column, pH 2.7, log p, method [b]: LC-MS, pH 2.7 with 0.1% formic acid in water and acetonitrile (0.1% formic acid), linear gradient 10% to 95% acetonitrile
[4] = method [a]: HPLC on reversed phase columns, pH 2.3 with 0.1% phosphoric acid and acetonitrile as eluent
[5] = method [b]: LC-MS, pH 2.7 with 0.1% formic acid in water and acetonitrile (0.1% formic acid), linear gradient 10% to 95% acetonitrile

Compound: CCCCC1COC(c2cccc(CON=C(c3ccccc3)c3nnnn3C)n2)O1 (stereo not drawn) [Example 172]
- log p [1]: 4.34^[c]

Compound: Cn1nnnc1C(=NOCc1cccc(C2OCC(COCc3ccccc3)O2)n1)c1ccccc1 (stereo not drawn) [Example 173]
- log p [1]: 3.89^[c]

Compound: Cn1nnnc1C(=NOCc1cccc(C=O)n1)c1ccccc1 [Example 174, 6-[({[(1-methyl-1H-tetrazol-5-yl)(phenyl)methylene]amino}oxy)methyl]pyridine-2-carbaldehyde]
- chromatographic logP (logP(HCOOH), HPLC/MS): 2.54
- chromatographic logP [2]: 2.54

Compound: Cc1sc(Br)nc1CON=C(c1ccccc1)c1nnnn1C [Example 175, N-[(2-bromo-5-methyl-1,3-thiazol-4-yl)methoxy]-1-(1-methyl-1H-tetrazol-5-yl)-1-phenylmethanimine]
- chromatographic logP (HPLC, logP(HCOOH), HPLC/MS): 3.37
- chromatographic logP [3]: 3.37

Compound: Cn1nnnc1C(=NOCc1cccc(C(O)CCc2ccccc2)n1)c1ccccc1 (stereo not drawn) [Example 176]
- log p [4]: 3.35^[a]

Compound: Cn1nnnc1C(=NOCc1cccc(C=NO)n1)c1ccccc1 [Example 177, N-({6-[(hydroxyimino)methyl]pyridin-2-yl}methoxy)-1-(1-methyl-1H-tetrazol-5-yl)-1-phenylmethanimine]
- chromatographic logP (HCOOH (formic acid), logP(HCOOH), HPLC/MS): 2.16
- chromatographic logP [2]: 2.16

Compound: Cn1nnnc1C(=NOCc1cccc(NCC2CCC2)n1)c1ccccc1 [Example 178]
- log p [4]: 1.98^[a]

Compound: Cn1nnnc1C(=NOCc1cccc(NCC2CC2(F)F)n1)c1ccccc1 (stereo not drawn) [Example 179]
- log p [4]: 2.17^[a]

Compound: Cn1nnnc1C(=NOCc1cccc(NCCCCC2CCCCC2)n1)c1ccccc1 [Example 180]
- log p [4]: 3.55^[a]

Compound: Cc1sc(C#CC2CC2)nc1CON=C(c1ccccc1)c1nnnn1C [Example 181]
- chromatographic logP [3]: 3.83

Compound: CCCC#Cc1nc(CON=C(c2ccccc2)c2nnnn2C)c(C)s1 [Example 182]
- log p [5]: 4.24^[b]

Compound: CCCCC#Cc1nc(CON=C(c2ccccc2)c2nnnn2C)c(C)s1 [Example 183]
- log p [5]: 3.37^[b]

Compound: Cc1sc(C#CCC2CCCCC2)nc1CON=C(c1ccccc1)c1nnnn1C [Example 184]
- log p [5]: 5.62^[b]

Compound: Cc1sc(C#CCC2CCCC2)nc1CON=C(c1ccccc1)c1nnnn1C [Example 185]
- log p [5]: 5.2^[b]

Compound: Cc1sc(C#CCCc2ccccc2)nc1CON=C(c1ccccc1)c1nnnn1C [Example 187]
- log p [5]: 4.65^[b]

Compound: CCCC(C)C#Cc1nc(CON=C(c2ccccc2)c2nnnn2C)c(C)s1 (stereo not drawn) [Example 188]
- log p [5]: 5.06^[b]

Compound: Cc1sc(C#CC(C)C)nc1CON=C(c1ccccc1)c1nnnn1C [Example 189]
- log p [5]: 4.21^[b]

Compound: Cc1sc(C#CC2CCCC2)nc1CON=C(c1ccccc1)c1nnnn1C [Example 190]
- log p [5]: 4.75^[b]

Compound: Cn1nnnc1C(=NOCc1csc(C#Cc2ccc(C#N)cc2)n1)c1ccccc1 [Example 191]
- log p [5]: 3.76^[b]

Compound: COc1ccc(C#Cc2nc(CON=C(c3ccccc3)c3nnnn3C)cs2)cc1 [Example 192]
- log p [5]: 4.14^[b]

Compound: Cn1nnnc1C(=NOCc1csc(C#CCCCCl)n1)c1ccccc1 [Example 193]
- log p [5]: 3.8^[b]

Compound: Cn1nnnc1C(=NOCc1csc(C#Cc2ccc3ccccc3c2)n1)c1ccccc1 [Example 194]
- log p [5]: 4.92^[b]

Compound: COC(=O)CCCC#Cc1nc(CON=C(c2ccccc2)c2nnnn2C)cs1 [Example 195]
- log p [5]: 3.33^[b]

Compound: COC(C)(C)C#Cc1nc(CON=C(c2ccccc2)c2nnnn2C)cs1 [Example 196]
- log p [5]: 3.53^[b]

Compound: CCOCCOCCNc1cccc(CON=C(c2ccccc2)c2nnnn2C)n1 [Example 197]
- log p [4]: 1.7^[a]

Compound: Cn1nnnc1C(=NOCc1csc(C#CCCO)n1)c1ccccc1 [Example 198]
- log p [5]: 2.3^[b]

Compound: CCSCC#Cc1nc(CON=C(c2ccccc2)c2nnnn2C)cs1 [Example 199]
- log p [5]: 3.78^[b]

Compound: Cn1nnnc1C(=NOCc1cccc(NCCCC2CCCCC2)n1)c1ccccc1 [Example 200]
- log p [4]: 3.17^[a]

Compound: Cn1nnnc1C(=NOCc1cccc(C=NN=CC2CC=CCC2)n1)c1ccccc1 (stereo not drawn) [Example 201]
- log p [4]: 4.16^[a]

Compound: CCCCc1ccc(C#Cc2nc(CON=C(c3ccccc3)c3nnnn3C)cs2)cc1 [Example 202]
- log p [5]: 5.82^[b]

Compound: Cn1nnnc1C(=NOCc1cccc(NCCOC2CCCCC2)n1)c1ccccc1 [Example 203]
- log p [5]: 2.35^[b]

Compound: Cn1nnnc1C(=NOCc1cccc(NCCOC2CCCC2)n1)c1ccccc1 [Example 204]
- log p [5]: 2.14^[b]

Compound: Cn1nnnc1C(=NOCc1cccc(NCC2CC2(Cl)Cl)n1)c1ccccc1 (stereo not drawn) [Example 205]
- log p [5]: 2.75^[b]

Compound: Cn1nnnc1C(=NOCc1cccc(C#Cc2cccs2)n1)c1ccccc1 [Example 206]
- log p [5]: 3.94^[b]

Compound: Cn1nnnc1C(=NOCc1cccc(C#Cc2ccsc2)n1)c1ccccc1 [Example 207]
- log p [5]: 3.83^[b]

Compound: Cn1nnnc1C(=NOCc1cccc(C#Cc2ccc3ccccc3c2)n1)c1ccccc1 [Example 208]
- log p [5]: 4.78^[b]

Compound: Cn1nnnc1C(=NOCc1cccc(C#CCCC#N)n1)c1ccccc1 [Example 209]
- log p [5]: 2.7^[b]

Compound: Cn1nnnc1C(=NOCc1cccc(C#CCCc2ccccc2)n1)c1ccccc1 [Example 210]
- log p [5]: 4.29^[b]

Compound: Cn1nnnc1C(=NOCc1cccc(C#CCCCCCl)n1)c1ccccc1 [Example 211]
- log p [5]: 3.99^[b]

Compound: Cn1nnnc1C(=NOCc1cccc(C#CCCCCl)n1)c1ccccc1 [Example 212]
- log p [5]: 3.71^[b]

Compound: Cn1nnnc1C(=NOCc1cccc(C#CCC2CCCCC2)n1)c1ccccc1 [Example 213]
- log p [5]: 5.17^[b]

Compound: CCCCCC#Cc1cccc(CON=C(c2ccccc2)c2nnnn2C)n1 [Example 214]
- log p [5]: 4.67^[b]

Compound: Cn1nnnc1C(=NOCc1cccc(C#Cc2ccccc2Cl)n1)c1ccccc1 [Example 215]
- log p [5]: 4.36^[b]

Compound: Cn1nnnc1C(=NOCc1cccc(C#Cc2ccc(-c3ccccc3)cc2)n1)c1ccccc1 [Example 216]
- log p [5]: 5.11^[b]

Compound: Cn1nnnc1C(=NOCc1cccc(C#Cc2ccc(C(F)(F)F)cc2)n1)c1ccccc1 [Example 217]
- log p [5]: 4.65^[b]

Compound: Cn1nnnc1C(=NOCc1cccc(C#Cc2cccc(C(F)(F)F)c2)n1)c1ccccc1 [Example 218]
- log p [5]: 4.62^[b]

Compound: Cn1nnnc1C(=NOCc1cccc(C#Cc2ccccc2C(F)(F)F)n1)c1ccccc1 [Example 219]
- log p [5]: 4.44^[b]

Compound: Cn1nnnc1C(=NOCc1cccc(C#Cc2ccc(OC(F)(F)F)cc2)n1)c1ccccc1 [Example 220]
- log p [5]: 4.75^[b]

Compound: COc1cccc(C#Cc2cccc(CON=C(c3ccccc3)c3nnnn3C)n2)c1 [Example 221]
- log p [5]: 4.09^[b]

Compound: COc1ccccc1C#Cc1cccc(CON=C(c2ccccc2)c2nnnn2C)n1 [Example 222]
- log p [5]: 3.89^[b]

Compound: Cn1nnnc1C(=NOCc1cccc(C#Cc2ccc(F)cc2)n1)c1ccccc1 [Example 223]
- log p [5]: 4.11^[b]

Compound: Cn1nnnc1C(=NOCc1cccc(C#Cc2ccc(C#N)cc2)n1)c1ccccc1 [Example 224]
- log p [5]: 3.69^[b]

Compound: Cn1nnnc1C(=NOCc1cccc(C#Cc2cccc(C#N)c2)n1)c1ccccc1 [Example 225]
- log p [5]: 3.69^[b]

Compound: CCCCOc1ccc(C#Cc2cccc(CON=C(c3ccccc3)c3nnnn3C)n2)cc1 [Example 226]
- log p [5]: 5.29^[b]

Compound: CCOc1ccc(C#Cc2cccc(CON=C(c3ccccc3)c3nnnn3C)n2)cc1 [Example 227]
- log p [5]: 4.41^[b]

Compound: COc1ccc(C#Cc2cccc(CON=C(c3ccccc3)c3nnnn3C)n2)cc1 [Example 228]
- log p [5]: 4.01^[b]

Compound: CC(C)c1ccc(C#Cc2cccc(CON=C(c3ccccc3)c3nnnn3C)n2)cc1 [Example 229]
- log p [5]: 5.14^[b]

Source: patent publication US8466176B2 (priority 2008, dated 2013)
